Values joined by “and” are separate entries in the source; they are usually repeats but may differ in a detail not shown here. Equal values may be shown once. Read-outs that look alike come from different tables or passages of the source.
Legend:
Test in all cases: SelectScreen kinase panel screening
Assay type in all cases: biochemical
PIK3CG (p110 gamma) = PIK3CG (p110 gamma) (Homo sapiens (Human), UniProt P48736)
Text: (§1) The complete list of the kinases given in Table 1 and their details can be found on the ThermoFisher website for Biochemical Kinase assays (thermofisher.com/us/en/home/industrial/pharma-biopharma/drug-discovery-development/target-and-lead-identification-and-validation/kinasebiology.html).

CSNK2A1 (CK2 alpha 1) = CSNK2A1 (CK2 alpha 1) (Homo sapiens (Human), UniProt P68400)
Text: as §1

AKT2 (PKB beta) = AKT2 (PKB beta) (Homo sapiens (Human), UniProt P31751)
Text: as §1

MST4 = MST4 (Homo sapiens (Human), UniProt Q9P289)
Text: as §1

FLT1 (VEGFR1) = FLT1 (VEGFR1) (Homo sapiens (Human), UniProt P17948)
Text: as §1

YES1 = YES1 (Homo sapiens (Human), UniProt P07947)
Text: as §1

PTK6 (Brk) = PTK6 (Brk) (Homo sapiens (Human), UniProt Q13882)
Text: as §1

HCK = HCK (Homo sapiens (Human), UniProt P08631)
Text: as §1

CDK7/cyclin H/MNAT1 = CDK7/cyclin H/MNAT1 (Homo sapiens (Human), UniProt P50613)
Text: as §1

EPHA1 = EPHA1 (Homo sapiens (Human), UniProt P21709)
Text: as §1

IKBKE (IKK epsilon) = IKBKE (IKK epsilon) (Homo sapiens (Human), UniProt Q14164)
Text: as §1

FYN = FYN (Homo sapiens (Human), UniProt P06241)
Text: as §1

FGFR1 = FGFR1 (Homo sapiens (Human), UniProt P11362)
Text: as §1

FLT4 (VEGFR3) = FLT4 (VEGFR3) (Homo sapiens (Human), UniProt P35916)
Text: as §1

CDC42 BPA (MRCKA) = CDC42 BPA (MRCKA) (Homo sapiens (Human), UniProt Q5VT25)
Text: as §1

BRAF = BRAF (Homo sapiens (Human), UniProt P15056)
Text: as §1

GSG2 (Haspin) = GSG2 (Haspin) (Homo sapiens (Human), UniProt Q8TF76)
Text: as §1

MAP3K8 (COT) = MAP3K8 (COT) (Homo sapiens (Human), UniProt P41279)
Text: as §1

BRAF V599E = BRAF V599E (Homo sapiens (Human), UniProt P15056, V600E)
Text: as §1

CDK2/cyclin A = CDK2/cyclin A (Homo sapiens (Human), UniProt P24941)
Text: as §1

IKBKB (IKK beta) = IKBKB (IKK beta) (Homo sapiens (Human), UniProt O14920)
Text: as §1

MAP4K4 (HGK) = MAP4K4 (HGK) (Homo sapiens (Human), UniProt O95819)
Text: as §1

BTK = BTK (Homo sapiens (Human), UniProt Q06187)
Text: as §1

TBK1 = TBK1 (Homo sapiens (Human), UniProt Q9UHD2)
Text: as §1

RET = RET (Homo sapiens (Human), UniProt P07949)
Text: as §1

IGF1R = IGF1R (Homo sapiens (Human), UniProt P08069)
Text: as §1

AURKC (Aurora C) = AURKC (Aurora C) (Homo sapiens (Human), UniProt Q9UQB9)
Text: as §1

EPHB2 = EPHB2 (Homo sapiens (Human), UniProt P29323)
Text: as §1

FER = FER (Homo sapiens (Human), UniProt P16591)
Text: as §1

SRC = SRC (Homo sapiens (Human), UniProt P12931)
Text: as §1

CHEK1 (CHK1) = CHEK1 (CHK1) (Homo sapiens (Human), UniProt O14757)
Text: as §1

LCK = LCK (Homo sapiens (Human), UniProt P06239)
Text: as §1

Sequence of GSG2 (Haspin) (Q8TF76 whole entry): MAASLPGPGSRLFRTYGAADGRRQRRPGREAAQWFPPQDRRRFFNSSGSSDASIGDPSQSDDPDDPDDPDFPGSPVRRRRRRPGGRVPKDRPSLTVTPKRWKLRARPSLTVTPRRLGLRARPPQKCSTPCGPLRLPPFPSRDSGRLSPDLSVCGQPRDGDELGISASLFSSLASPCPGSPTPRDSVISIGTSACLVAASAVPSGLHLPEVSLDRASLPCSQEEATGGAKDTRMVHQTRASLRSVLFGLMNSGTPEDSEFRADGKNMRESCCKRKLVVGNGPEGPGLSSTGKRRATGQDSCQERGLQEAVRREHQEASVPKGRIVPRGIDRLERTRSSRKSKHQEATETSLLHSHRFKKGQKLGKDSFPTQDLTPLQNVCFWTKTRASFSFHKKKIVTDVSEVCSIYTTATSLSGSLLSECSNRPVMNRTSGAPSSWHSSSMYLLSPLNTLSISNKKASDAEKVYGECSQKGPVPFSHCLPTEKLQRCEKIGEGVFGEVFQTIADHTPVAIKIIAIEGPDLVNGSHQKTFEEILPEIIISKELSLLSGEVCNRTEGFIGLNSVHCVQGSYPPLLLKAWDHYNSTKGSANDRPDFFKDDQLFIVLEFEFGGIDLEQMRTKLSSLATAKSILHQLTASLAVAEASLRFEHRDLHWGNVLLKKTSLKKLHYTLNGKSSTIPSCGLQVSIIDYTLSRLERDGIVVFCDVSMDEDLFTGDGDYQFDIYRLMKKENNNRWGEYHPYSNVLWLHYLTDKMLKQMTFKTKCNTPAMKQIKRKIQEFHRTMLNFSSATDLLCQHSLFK
Sequence of PIK3CG (p110 gamma) (P48736 whole entry): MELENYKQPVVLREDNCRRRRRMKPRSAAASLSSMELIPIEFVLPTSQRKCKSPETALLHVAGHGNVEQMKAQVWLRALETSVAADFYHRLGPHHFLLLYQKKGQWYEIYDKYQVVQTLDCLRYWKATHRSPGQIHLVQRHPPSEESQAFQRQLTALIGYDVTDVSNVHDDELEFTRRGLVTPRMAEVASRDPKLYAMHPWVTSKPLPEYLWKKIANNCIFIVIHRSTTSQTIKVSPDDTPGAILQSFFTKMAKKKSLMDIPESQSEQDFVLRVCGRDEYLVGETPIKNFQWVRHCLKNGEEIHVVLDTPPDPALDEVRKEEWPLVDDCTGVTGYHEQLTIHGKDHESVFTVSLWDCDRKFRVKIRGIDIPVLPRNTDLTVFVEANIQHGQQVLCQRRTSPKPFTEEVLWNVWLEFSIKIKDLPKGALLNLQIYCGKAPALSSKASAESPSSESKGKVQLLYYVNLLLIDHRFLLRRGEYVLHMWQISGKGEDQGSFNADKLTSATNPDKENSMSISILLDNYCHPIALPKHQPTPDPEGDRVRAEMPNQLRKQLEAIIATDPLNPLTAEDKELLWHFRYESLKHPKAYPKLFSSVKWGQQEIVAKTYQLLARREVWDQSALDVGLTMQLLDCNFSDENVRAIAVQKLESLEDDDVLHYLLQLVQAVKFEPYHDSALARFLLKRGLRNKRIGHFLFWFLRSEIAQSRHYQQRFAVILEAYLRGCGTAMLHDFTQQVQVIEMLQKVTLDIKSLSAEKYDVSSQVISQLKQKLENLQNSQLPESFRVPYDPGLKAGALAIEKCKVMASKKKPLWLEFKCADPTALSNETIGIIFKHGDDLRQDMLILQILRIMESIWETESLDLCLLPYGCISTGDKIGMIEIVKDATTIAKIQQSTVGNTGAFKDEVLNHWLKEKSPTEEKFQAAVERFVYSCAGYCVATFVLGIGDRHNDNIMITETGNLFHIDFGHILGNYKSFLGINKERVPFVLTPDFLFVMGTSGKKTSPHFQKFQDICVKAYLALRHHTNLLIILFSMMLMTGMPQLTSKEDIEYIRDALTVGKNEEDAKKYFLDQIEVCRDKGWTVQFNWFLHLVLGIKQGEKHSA
Sequence of CDK7/cyclin H/MNAT1 (P50613 whole entry): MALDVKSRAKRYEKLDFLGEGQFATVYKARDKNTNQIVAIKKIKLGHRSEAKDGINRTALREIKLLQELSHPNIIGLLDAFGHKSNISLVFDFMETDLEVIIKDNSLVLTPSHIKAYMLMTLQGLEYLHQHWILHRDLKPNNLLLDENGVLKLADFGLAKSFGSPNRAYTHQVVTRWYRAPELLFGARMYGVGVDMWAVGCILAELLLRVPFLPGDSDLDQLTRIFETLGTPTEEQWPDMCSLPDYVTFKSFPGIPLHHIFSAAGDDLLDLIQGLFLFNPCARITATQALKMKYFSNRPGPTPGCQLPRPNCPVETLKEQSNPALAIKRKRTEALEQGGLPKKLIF
Sequence of CDK7/cyclin H/MNAT1 (P51946 whole entry partner): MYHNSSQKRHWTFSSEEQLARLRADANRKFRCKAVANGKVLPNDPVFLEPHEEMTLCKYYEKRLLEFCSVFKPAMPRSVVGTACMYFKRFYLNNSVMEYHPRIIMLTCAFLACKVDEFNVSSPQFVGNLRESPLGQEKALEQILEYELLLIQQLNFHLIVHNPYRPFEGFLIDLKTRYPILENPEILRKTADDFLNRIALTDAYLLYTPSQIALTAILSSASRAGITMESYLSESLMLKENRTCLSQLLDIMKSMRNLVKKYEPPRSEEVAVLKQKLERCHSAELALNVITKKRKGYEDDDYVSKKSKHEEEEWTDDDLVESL
Sequence of CDK7/cyclin H/MNAT1 (P51948 whole entry partner): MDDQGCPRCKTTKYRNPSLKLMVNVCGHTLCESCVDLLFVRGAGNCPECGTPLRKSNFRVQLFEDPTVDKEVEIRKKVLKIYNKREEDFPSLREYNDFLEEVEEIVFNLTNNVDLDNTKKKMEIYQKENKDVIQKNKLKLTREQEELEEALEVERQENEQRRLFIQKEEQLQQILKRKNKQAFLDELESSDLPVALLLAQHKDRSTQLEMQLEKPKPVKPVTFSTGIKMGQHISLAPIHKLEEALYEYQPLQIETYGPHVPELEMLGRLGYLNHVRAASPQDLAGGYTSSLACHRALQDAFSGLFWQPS
Sequence of FLT1 (VEGFR1) (P17948 27-1338): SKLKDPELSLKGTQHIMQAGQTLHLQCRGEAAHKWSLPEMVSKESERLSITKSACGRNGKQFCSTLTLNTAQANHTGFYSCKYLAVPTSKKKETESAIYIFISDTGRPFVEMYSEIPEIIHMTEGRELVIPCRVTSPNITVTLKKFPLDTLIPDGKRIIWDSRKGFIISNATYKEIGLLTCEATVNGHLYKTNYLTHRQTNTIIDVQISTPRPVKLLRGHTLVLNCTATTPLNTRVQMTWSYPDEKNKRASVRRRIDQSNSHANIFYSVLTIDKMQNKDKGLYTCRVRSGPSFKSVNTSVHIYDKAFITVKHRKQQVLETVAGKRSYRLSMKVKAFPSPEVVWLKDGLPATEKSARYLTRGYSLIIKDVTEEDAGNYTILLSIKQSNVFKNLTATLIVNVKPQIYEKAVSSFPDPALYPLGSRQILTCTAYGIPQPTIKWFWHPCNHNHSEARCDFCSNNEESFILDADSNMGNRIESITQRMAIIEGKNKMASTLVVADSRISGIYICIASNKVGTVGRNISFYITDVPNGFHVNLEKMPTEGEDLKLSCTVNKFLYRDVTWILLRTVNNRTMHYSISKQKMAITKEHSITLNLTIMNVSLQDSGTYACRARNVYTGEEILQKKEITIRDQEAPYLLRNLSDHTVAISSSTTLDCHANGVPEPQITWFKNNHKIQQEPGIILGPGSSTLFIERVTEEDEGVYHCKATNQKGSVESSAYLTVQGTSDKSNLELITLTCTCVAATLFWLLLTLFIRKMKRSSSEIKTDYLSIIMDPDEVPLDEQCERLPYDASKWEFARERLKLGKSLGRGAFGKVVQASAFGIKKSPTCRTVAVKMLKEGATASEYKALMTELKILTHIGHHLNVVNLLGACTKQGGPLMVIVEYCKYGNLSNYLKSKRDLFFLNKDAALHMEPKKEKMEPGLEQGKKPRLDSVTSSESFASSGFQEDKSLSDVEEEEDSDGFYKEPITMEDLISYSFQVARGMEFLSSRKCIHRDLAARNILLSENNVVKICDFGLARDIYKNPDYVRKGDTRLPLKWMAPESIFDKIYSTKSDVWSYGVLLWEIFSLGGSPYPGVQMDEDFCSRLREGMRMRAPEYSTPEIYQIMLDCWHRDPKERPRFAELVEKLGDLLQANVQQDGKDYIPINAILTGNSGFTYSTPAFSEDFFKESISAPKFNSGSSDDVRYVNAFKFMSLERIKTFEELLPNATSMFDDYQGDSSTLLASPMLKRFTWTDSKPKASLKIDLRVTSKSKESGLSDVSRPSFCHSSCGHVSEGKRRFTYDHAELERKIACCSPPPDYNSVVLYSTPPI
Sequence of CSNK2A1 (CK2 alpha 1) (P68400 whole entry): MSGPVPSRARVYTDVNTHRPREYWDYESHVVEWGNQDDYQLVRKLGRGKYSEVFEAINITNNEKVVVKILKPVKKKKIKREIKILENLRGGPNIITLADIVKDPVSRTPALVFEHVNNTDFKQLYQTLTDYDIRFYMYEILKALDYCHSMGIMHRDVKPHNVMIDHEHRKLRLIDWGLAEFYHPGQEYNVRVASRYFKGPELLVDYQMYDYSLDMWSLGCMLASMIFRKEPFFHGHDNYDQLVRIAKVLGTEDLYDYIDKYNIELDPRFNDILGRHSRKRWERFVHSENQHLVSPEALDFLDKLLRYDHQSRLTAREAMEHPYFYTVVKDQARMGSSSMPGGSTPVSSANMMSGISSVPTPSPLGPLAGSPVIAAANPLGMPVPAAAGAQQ
Sequence of BRAF V599E (P15056 416-766 V600E limits assumed): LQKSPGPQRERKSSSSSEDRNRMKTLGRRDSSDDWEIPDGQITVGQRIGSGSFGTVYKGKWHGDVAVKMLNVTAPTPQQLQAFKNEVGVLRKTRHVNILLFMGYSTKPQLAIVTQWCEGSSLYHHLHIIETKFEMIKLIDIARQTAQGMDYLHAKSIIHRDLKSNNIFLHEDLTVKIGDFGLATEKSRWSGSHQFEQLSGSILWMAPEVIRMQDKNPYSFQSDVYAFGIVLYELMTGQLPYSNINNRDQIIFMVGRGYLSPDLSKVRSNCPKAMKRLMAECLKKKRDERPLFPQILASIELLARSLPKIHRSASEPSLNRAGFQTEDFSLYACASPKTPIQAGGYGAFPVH

% Inhibition (PIK3CG (p110 gamma); 10 μM): 11%
inhibition at 10 µM (PIK3CG (p110 gamma); read-out: % Inhibition): 12%
inhibition at 10 µM (PIK3CG (p110 gamma); read-out: % Inhibition class): < 40%
inhibition at 10 µM (CSNK2A1 (CK2 alpha 1); read-out: % Inhibition): 5%
inhibition at 10 µM (CSNK2A1 (CK2 alpha 1); read-out: % Inhibition class): < 40%
inhibition at 10 µM (AKT2 (PKB beta); read-out: % Inhibition): 9%
inhibition at 10 µM (AKT2 (PKB beta); read-out: % Inhibition class): < 40%
inhibition at 10 µM (MST4; read-out: % Inhibition): 52%
inhibition at 10 µM (MST4; read-out: % Inhibition class): 40 to 80%
inhibition at 10 µM (FLT1 (VEGFR1); read-out: % Inhibition): 18%
inhibition at 10 µM (FLT1 (VEGFR1); read-out: % Inhibition class): < 40%
inhibition at 10 µM (YES1; read-out: % Inhibition): 24%
inhibition at 10 µM (YES1; read-out: % Inhibition class): < 40%
inhibition at 10 µM (PTK6 (Brk); read-out: % Inhibition): 4%
inhibition at 10 µM (PTK6 (Brk); read-out: % Inhibition class): < 40%
inhibition at 10 µM (HCK; read-out: % Inhibition): 21%
inhibition at 10 µM (HCK; read-out: % Inhibition class): < 40%
% Inhibition (CDK7/cyclin H/MNAT1; 10 μM): 1% and −1%
inhibition at 10 µM (CDK7/cyclin H/MNAT1; read-out: % Inhibition class): < 40%
inhibition at 10 µM (EPHA1; read-out: % Inhibition): 15%
inhibition at 10 µM (EPHA1; read-out: % Inhibition class): < 40%
inhibition at 10 µM (IKBKE (IKK epsilon); read-out: % Inhibition): 16%
inhibition at 10 µM (IKBKE (IKK epsilon); read-out: % Inhibition class): < 40%
inhibition at 10 µM (FYN; read-out: % Inhibition): 17%
inhibition at 10 µM (FYN; read-out: % Inhibition class): < 40%
inhibition at 10 µM (FGFR1; read-out: % Inhibition): 51%
inhibition at 10 µM (FGFR1; read-out: % Inhibition class): 40 to 80%
inhibition at 10 µM (FLT4 (VEGFR3); read-out: % Inhibition): 55%
inhibition at 10 µM (FLT4 (VEGFR3); read-out: % Inhibition class): 40 to 80%
inhibition at 10 µM (CDC42 BPA (MRCKA); read-out: % Inhibition): 0%
inhibition at 10 µM (CDC42 BPA (MRCKA); read-out: % Inhibition class): < 40%
inhibition at 10 µM (BRAF; read-out: % Inhibition): 19%
inhibition at 10 µM (BRAF; read-out: % Inhibition class): < 40%
% Inhibition (GSG2 (Haspin); 10 μM): 34% and 65%
inhibition at 10 µM (GSG2 (Haspin); read-out: % Inhibition class): < 40%
inhibition at 10 µM (MAP3K8 (COT); read-out: % Inhibition): 29%
inhibition at 10 µM (MAP3K8 (COT); read-out: % Inhibition class): < 40%
inhibition at 10 µM (BRAF V599E; read-out: % Inhibition): 22%
inhibition at 10 µM (BRAF V599E; read-out: % Inhibition class): < 40%
inhibition at 10 µM (CDK2/cyclin A; read-out: % Inhibition): 9%
inhibition at 10 µM (CDK2/cyclin A; read-out: % Inhibition class): < 40%
inhibition at 10 µM (IKBKB (IKK beta); read-out: % Inhibition): 16%
inhibition at 10 µM (IKBKB (IKK beta); read-out: % Inhibition class): < 40%
inhibition at 10 µM (MAP4K4 (HGK); read-out: % Inhibition): 66%
inhibition at 10 µM (MAP4K4 (HGK); read-out: % Inhibition class): 40 to 80%
inhibition at 10 µM (BTK; read-out: % Inhibition): 43%
inhibition at 10 µM (BTK; read-out: % Inhibition class): 40 to 80%
inhibition at 10 µM (TBK1; read-out: % Inhibition): 18%
inhibition at 10 µM (TBK1; read-out: % Inhibition class): < 40%
inhibition at 10 µM (RET; read-out: % Inhibition): 79%
inhibition at 10 µM (RET; read-out: % Inhibition class): 40 to 80%
inhibition at 10 µM (IGF1R; read-out: % Inhibition): 10%
inhibition at 10 µM (IGF1R; read-out: % Inhibition class): < 40%
inhibition at 10 µM (AURKC (Aurora C); read-out: % Inhibition): 40%
inhibition at 10 µM (AURKC (Aurora C); read-out: % Inhibition class): < 40%
inhibition at 10 µM (EPHB2; read-out: % Inhibition): 10%
inhibition at 10 µM (EPHB2; read-out: % Inhibition class): < 40%
inhibition at 10 µM (FER; read-out: % Inhibition): 23%
inhibition at 10 µM (FER; read-out: % Inhibition class): < 40%
inhibition at 10 µM (SRC; read-out: % Inhibition): 9%
inhibition at 10 µM (SRC; read-out: % Inhibition class): < 40%
inhibition at 10 µM (CHEK1 (CHK1); read-out: % Inhibition): 72%
inhibition at 10 µM (CHEK1 (CHK1); read-out: % Inhibition class): 40 to 80%
inhibition at 10 µM (LCK; read-out: % Inhibition): 31%
inhibition at 10 µM (LCK; read-out: % Inhibition class): < 40%
Structure (SMILES): Nc1cc(N)c2c(c1)C(=O)NC2=O [RJ1, 4,6-diaminoisoindoline-1,3-dione]

Reference: patent publication US11912660B2, “S6K1 protein kinase inhibitors as cancer therapeutics” (Xavier University of Louisiana, priority 2020, dated 2024)
